The subject of experiment [1] is pulmonary fibrosis induced by bleomycin in mice. Description: MASSON staining and α-SMA immunohistochemical staining of lung sections. The class given is in vivo, mouse. The following applies: Effect example 5, 30, 60, 90 mg/kg oral qd 12 days. The protocol:
The grouping of mice is the same as that in Effect example 2.
1) Dewaxing to water of the paraffin sections: the sections were put into xylene I (20 minutes)-xylene II (29 minutes)-absolute ethanol I (5 minutes)-absolute ethanol II (5 minutes)-75% ethanol (5 minutes), and then washed with tap water.
2) Potassium dichromate staining: the sections were soaked in potassium dichromate overnight and washed with tap water.
3) Iron hematoxylin staining: iron hematoxylin solution A and B were mixed in an equal ratio to form an iron hematoxylin staining solution, then the sections were put into iron hematoxylin for about 3 minutes, washed with tap water, differentiated with a solution of hydrochloric acid in ethanol, and then rinsed with tap water.
4) Ponceau red acid fuchsin staining: the sections were put into a Ponceau red acid fuchsin solution for 5 to 10 minutes and rinsed with tap water.
5) Phosphomolybdic acid staining: the sections were put into an aqueous phosphomolybdic acid solution for 1 to 3 minutes.
6) Aniline blue staining: after the phosphomolybdic acid staining, the sections were not washed with water, but directly put into an aniline blue staining solution for staining for 3 to 6 minutes.
7) Differentiation: the sections were differentiated with 1% glacial acetic acid, and dehydrated with two cylinders of absolute ethanol. […]

In another experiment the target is Met (Homo sapiens (Human), UniProt P08581). Description: Enzyme selectivity test (ELISA), Met. The class given is biochemical. The protocol: (§1) 1) Enzyme reaction substrate Poly(Glu, Tyr) 4:1 was diluted to 20 μg/mL with potassium-free PBS (10 mM sodium phosphate buffer, 150 mM NaCl, pH 7.2-7.4), and the microtiter plate was coated with 125 μL/well and placed at 37° C. for 12-16 hours of reaction. The liquid in the well was discard. The plate was washed three times with T-PBS (potassium-free PBS containing 0.1% Tween-20, 200 μL/well), 5 minutes each time. The ELISA plate was dried in an oven at 37° C. for 1 to 2 hours.
(§2) 2) Reaction buffer (50 mM HEPES pH 7.4, 50 mM MgCl2, 0.5 mM MnCl2, 0.2 mM Na3VO4, 1 mM DTT) diluted ATP solution (49 μL) was added to each well, 1 μL of the compound to be tested was added to each well, and then 50 μL of DDR2 kinase domain recombinant protein diluted in the reaction buffer was added to start the reaction. Two control wells without ATP were set in each experiment. The plate placed on a shaker (100 rpm) at 37° C. for 1 hour of reaction. The liquid in the well was discarded and the plate was washed three times with T-PBS.
(§3) 3) Antibody PY99 dilution solution (the antibody was diluted 1:500 with T-PBS containing BSA 5 mg/mL) was added at 100 μL/well, and shaken on a shaker at 37° C. for 0.5 hour of reaction. The liquid in the well was discarded and the plate was washed three times with T-PBS.
(§4) 4) Horseradish peroxidase labeled goat anti-murine secondary antibody dilution solution (the antibody is diluted 1:2000 with T-PBS containing BSA 5 mg/ml) was added at 100 μL/well, and shaken on a shaker at 37° C. for 0.5 hour of reaction. The liquid in the well was discarded and the plate was washed three times with T-PBS.
(§5) 5) 2 mg/ml of OPD color developing solution [diluted with 0.1 M citric acid-sodium citrate buffer (pH=5.4) containing 0.03% H2O2] was added at 100 μL/well and reacted for 1 to 10 minutes at 25° C. in the dark.
(§6) 6) 2M H2SO4 was added at 50 μL/well to stop the reaction, and a tunable wavelength microplate reader VERSAmax was used for reading at a wavelength of 490 nm.
(§7) The IC50 value was obtained by four-parameter regression using the software that came with the microplate reader. […]

A further experiment has as its target ALK (Homo sapiens (Human), UniProt Q9UM73). Briefly: Enzyme selectivity test (ELISA), ALK. It is filed as biochemical. The protocol: as §1, §2, §3, §4, §5, §6, §7
On the technique in general: ELISA stands for enzyme-linked immunosorbent assay.

The target of another experiment is FGFR-1 (Homo sapiens (Human), UniProt P11362). Briefly: Enzyme selectivity test (ELISA), FGFR-1. The class given is biochemical. The protocol:
as §1, §2, §3, §4, §5, §6, §7

The next experiment addresses EGFR (Homo sapiens (Human), UniProt P00533). Description: Enzyme selectivity test (ELISA), EGFR. The class given is biochemical. On the procedure:
as §1, §2, §3, §4, §5, §6, §7

Bounds are passed on as bounds.

Sequence of Met (P08581 25-1390): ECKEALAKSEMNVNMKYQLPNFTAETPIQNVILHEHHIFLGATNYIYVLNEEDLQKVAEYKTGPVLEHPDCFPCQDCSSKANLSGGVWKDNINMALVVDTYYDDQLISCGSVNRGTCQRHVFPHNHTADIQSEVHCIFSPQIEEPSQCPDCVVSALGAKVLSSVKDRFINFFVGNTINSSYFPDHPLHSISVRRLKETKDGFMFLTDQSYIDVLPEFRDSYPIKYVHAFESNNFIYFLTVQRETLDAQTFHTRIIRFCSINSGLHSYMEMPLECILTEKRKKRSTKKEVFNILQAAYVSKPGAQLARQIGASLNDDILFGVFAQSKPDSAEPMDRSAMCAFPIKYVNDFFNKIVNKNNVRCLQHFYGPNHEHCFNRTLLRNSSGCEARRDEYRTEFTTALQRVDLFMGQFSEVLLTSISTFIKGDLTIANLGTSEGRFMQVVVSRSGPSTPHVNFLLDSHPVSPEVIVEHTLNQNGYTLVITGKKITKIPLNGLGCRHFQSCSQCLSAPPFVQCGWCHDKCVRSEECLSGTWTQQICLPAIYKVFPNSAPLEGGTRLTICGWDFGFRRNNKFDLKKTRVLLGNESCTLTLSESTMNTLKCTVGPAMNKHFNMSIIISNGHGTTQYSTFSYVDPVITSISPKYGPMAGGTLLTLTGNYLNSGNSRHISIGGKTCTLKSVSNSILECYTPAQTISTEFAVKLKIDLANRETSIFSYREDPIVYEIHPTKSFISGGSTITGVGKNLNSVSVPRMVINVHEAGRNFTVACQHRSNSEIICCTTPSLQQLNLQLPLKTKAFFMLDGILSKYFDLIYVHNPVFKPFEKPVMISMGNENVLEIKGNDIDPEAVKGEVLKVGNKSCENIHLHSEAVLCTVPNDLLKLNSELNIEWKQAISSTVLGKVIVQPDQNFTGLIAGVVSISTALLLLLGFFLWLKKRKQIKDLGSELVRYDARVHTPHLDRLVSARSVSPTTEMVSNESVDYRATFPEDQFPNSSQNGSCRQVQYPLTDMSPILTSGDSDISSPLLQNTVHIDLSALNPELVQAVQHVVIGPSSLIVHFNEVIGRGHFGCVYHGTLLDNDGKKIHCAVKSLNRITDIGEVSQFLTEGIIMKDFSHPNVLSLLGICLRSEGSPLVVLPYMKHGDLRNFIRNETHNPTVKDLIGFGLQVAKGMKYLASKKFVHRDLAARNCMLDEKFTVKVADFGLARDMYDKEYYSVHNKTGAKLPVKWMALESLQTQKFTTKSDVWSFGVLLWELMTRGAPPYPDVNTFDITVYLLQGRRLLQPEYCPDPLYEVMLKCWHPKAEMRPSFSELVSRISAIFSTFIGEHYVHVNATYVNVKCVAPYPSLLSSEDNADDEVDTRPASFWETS
Sequence of ALK (Q9UM73 19-1620, species assumed): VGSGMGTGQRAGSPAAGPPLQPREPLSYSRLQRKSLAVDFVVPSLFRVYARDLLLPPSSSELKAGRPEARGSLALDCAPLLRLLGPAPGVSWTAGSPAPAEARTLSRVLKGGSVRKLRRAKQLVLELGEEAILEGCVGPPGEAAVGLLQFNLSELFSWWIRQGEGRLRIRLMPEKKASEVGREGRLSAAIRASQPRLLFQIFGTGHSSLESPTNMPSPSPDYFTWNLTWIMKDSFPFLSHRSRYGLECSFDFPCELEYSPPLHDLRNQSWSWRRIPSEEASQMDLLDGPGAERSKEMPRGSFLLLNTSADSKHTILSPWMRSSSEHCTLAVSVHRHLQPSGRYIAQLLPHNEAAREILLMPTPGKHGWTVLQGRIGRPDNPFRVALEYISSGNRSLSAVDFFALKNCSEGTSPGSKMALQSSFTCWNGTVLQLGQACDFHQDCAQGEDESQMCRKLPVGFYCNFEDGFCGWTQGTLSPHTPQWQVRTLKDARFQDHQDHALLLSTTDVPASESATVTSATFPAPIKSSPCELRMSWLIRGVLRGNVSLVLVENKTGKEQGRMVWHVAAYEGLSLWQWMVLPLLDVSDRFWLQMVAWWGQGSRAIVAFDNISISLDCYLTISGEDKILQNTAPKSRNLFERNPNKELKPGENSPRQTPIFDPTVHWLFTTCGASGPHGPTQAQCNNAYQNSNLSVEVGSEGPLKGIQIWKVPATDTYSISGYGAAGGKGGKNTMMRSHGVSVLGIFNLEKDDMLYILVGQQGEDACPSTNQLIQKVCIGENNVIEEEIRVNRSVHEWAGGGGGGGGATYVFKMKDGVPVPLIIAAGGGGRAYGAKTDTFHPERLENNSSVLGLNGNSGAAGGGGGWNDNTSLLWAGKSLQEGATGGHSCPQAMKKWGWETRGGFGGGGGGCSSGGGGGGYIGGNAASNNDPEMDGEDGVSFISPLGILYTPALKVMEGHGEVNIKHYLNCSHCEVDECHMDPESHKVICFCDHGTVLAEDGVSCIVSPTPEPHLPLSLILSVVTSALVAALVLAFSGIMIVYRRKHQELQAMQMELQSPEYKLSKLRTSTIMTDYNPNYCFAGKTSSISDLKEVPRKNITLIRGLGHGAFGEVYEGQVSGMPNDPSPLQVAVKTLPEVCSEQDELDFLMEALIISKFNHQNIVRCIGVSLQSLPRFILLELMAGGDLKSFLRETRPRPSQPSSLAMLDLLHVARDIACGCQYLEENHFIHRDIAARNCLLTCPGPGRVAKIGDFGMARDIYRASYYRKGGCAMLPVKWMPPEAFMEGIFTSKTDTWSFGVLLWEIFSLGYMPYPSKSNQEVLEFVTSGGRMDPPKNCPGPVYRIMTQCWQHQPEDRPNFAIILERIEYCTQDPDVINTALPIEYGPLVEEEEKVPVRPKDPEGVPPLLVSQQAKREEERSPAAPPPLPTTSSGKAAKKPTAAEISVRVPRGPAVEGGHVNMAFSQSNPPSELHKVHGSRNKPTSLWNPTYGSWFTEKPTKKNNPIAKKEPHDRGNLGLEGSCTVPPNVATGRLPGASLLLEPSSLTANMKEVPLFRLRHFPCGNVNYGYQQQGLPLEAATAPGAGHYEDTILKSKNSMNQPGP
Sequence of FGFR-1 (P11362 22-822, species assumed): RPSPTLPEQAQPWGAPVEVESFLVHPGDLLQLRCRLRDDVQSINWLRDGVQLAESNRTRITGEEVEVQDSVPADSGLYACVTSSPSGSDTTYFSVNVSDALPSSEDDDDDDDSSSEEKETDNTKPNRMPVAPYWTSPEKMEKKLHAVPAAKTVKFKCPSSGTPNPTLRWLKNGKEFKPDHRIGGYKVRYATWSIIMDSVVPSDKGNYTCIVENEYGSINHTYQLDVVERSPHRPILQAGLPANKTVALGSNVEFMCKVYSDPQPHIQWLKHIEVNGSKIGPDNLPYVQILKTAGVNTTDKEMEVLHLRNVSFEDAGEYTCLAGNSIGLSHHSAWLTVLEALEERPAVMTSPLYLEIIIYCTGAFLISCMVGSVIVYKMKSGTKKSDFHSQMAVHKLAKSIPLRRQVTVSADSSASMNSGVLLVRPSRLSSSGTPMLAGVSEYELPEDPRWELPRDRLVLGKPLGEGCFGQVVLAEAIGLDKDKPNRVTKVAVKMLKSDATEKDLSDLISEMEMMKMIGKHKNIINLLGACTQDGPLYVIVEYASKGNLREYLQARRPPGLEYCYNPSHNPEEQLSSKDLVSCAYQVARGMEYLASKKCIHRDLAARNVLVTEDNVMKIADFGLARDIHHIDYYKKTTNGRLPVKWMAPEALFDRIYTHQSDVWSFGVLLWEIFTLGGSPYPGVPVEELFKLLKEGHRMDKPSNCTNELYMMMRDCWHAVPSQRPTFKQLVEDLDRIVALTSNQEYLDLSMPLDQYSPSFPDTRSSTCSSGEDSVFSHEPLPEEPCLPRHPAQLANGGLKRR
Sequence of EGFR (P00533 25-1210, species assumed): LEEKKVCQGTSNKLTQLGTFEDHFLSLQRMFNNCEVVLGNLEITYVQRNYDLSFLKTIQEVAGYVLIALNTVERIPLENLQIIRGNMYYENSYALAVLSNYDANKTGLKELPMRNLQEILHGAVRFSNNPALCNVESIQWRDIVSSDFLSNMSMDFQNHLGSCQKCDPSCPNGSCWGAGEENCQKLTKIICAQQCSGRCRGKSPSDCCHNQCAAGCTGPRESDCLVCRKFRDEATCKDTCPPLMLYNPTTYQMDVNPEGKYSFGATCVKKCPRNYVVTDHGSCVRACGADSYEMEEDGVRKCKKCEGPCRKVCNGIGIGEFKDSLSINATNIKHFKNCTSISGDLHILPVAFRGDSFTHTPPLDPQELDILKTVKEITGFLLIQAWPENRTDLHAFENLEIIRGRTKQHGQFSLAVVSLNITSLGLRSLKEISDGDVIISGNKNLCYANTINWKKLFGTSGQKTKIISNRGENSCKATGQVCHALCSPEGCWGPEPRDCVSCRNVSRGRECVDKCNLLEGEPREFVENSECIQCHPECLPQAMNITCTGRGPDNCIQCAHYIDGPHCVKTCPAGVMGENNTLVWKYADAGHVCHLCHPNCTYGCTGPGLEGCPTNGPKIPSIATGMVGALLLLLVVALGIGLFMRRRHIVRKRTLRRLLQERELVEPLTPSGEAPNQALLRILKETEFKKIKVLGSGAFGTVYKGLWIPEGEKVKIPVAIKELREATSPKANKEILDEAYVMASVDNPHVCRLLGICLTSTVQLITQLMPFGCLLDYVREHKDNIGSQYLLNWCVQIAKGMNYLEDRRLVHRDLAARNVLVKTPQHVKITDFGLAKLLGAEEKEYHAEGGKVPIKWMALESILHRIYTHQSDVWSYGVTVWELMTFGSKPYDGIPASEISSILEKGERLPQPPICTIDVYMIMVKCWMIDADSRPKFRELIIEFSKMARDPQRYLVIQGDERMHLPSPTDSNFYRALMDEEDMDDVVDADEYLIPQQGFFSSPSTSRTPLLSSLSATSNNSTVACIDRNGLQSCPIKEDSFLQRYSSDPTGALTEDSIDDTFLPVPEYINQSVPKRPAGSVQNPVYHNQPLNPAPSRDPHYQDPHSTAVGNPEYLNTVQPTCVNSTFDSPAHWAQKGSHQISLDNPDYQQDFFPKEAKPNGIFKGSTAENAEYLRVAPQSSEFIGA

In the case of `O=C(Nc1cccc(C(F)(F)F)c1)c1ccc(C2CC2)c(-c2ccc3nc(Nc4cnn(C5CC5)c4)ncc3c2)c1` [Compound S15, 4-cyclopropyl-3-(2-((1-cyclopropyl-1H-pyrazol-4-yl)amino)quinazolin-6-yl)-N-(3-(trifluoromethyl)phenyl)benzamide], the “expression of collagen and α-SMA (staining, immunohistochemistry)” value in experiment [1] is “decrease the expression of collagen and α-SMA in a dose-dependent manner”. The “pulmonary fibrosis, MASSON staining” value in experiment [1] was “significantly reduce BLM-induced lung injury and inflammation, and can also reduce pulmonary fibrosis”. The IC50 is over 1 µM on Met, over 1 µM on ALK, over 0.01 µM against FGFR-1 and over 1 µM against EGFR.

Broadly, the IC50 is the concentration at which inhibition is half-maximal. Lower therefore signals higher potency.

The values above are taken from patent publication US11655239B2 (SHANGHAI INSTITUTE OF MATERIAL MEDICA, CHINESE ACADEMY OF …, priority 2019, dated 2023).
